# Laboratory results from US11339161B2, “Triazolo pyridines as modulators of gamma-secretase” (Boehringer Ingelheim International GmbH, priority 2017, dated 2022).
# Like-named read-outs stand apart in the source and are kept apart here.
# How the values were obtained:
# AURKA (Aurora A) = target: T1, AURKA (Aurora A) (Homo sapiens, UniProt O14965); assay: Z'-LYTE SelectScreen biochemical kinase assay AURKA (Aurora A)
# T1 sequence (O14965 1-403): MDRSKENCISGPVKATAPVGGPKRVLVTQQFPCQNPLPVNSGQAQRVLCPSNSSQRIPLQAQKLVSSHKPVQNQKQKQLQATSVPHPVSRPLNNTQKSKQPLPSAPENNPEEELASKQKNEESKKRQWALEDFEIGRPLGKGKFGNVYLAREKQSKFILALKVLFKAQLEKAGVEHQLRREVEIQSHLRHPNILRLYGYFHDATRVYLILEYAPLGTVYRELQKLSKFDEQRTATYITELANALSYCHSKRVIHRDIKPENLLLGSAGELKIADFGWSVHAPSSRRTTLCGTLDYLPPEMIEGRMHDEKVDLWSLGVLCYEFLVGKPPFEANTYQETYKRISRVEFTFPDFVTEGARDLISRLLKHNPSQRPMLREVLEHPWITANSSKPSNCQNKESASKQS
# Description: (§1) Thermo Fisher Scientific SelectScreen™ Biochemical Kinase Profiling Service Z′-LYTE™ Screening Protocol and Assay Conditions Assay Theory
# (§2) The […] biochemical assay employs a fluorescence-based, coupled-enzyme format and is based on the differential sensitivity of phosphorylated and non-phosphorylated peptides to proteolytic cleavage. The peptide substrate is labeled with two fluorophores—one at each end—that make up a FRET pair. In the primary reaction, the kinase transfers the gamma-phosphate of ATP to a single tyrosine, serine or threonine residue in a synthetic FRET-peptide. In the secondary reaction, a site-specific protease recognizes and cleaves non-phosphorylated FRET-peptides. Phosphorylation of FRET-peptides suppresses cleavage by the Development Reagent. Cleavage disrupts FRET between the donor (i.e., coumarin) and acceptor (i.e., fluorescein) fluorophores on the FRET-peptide, whereas uncleaved, phosphorylated FRET-peptides maintain FRET. A ratiometric method, which calculates the ratio (Emission Ratio=Coumarin emission (445 nm)/Fluorescein emission (520 nm)) of donor emission to acceptor emission after excitation of the donor fluorophore at 400 nm, is used to quantitate reaction progress, as shown in the equation below. A significant benefit of this ratiometric method for quantitating reaction progress is the elimination of well-to-well variations in FRET-peptide concentration and signal intensities. As a result, the assay yields very high Z′-factor values (>0.7) at a low percent phosphorylation. Both cleaved and uncleaved FRET-peptides contribute to the fluorescence signals and therefore to the Emission Ratio. The extent of phosphorylation of the FRET-peptide can be calculated from the Emission Ratio. The Emission Ratio will remain low if the FRET-peptide is phosphorylated (i.e., no kinase inhibition) and will be high if the FRET-peptide is non-phosphorylated (i.e., kinase inhibition).
# (§3) The Test Compounds are screened in 1% DMSO (final) in the well. For 10 point titrations, 3-fold serial dilutions are conducted from the starting concentration of the customer's choosing.
# (§4) All Peptide/Kinase Mixtures are diluted to a 2× working concentration in the appropriate Kinase Buffer (see section Kinase Specific Assay Conditions for a complete description).
# (§5) All ATP Solutions are diluted to a 4× working concentration in Kinase Buffer (50 mM HEPES pH 7.5, 0.01% BRIJ-35, 10 mM MgCl2, 1 mM EGTA). ATP Km apparent is previously determined using a Z″-LYTE assay.
# (§6) The Development Reagent is diluted in Development Buffer (see section Kinase-Specific Assay Conditions—Direct and Cascade for a complete description).
# (§7) Bar-coded Corning, low volume NBS, black 384-well plate (Corning Cat. #4514) • 1. 100 nL—100× Test Compound in 100% DMSO • 2. 2.4 μL—Kinase buffer • 3. 5 μL—2× Peptide/Kinase Mixture • 4. 2.5 μL—4×ATP Solution • 5. 30—second plate shake • 6. 60—minute Kinase Reaction incubation at room temperature • 7. 5 μL—Development Reagent Solution • 8. 30—second plate shake • 9. 60—minute Development Reaction incubation at room temperature • 10. Read on fluorescence plate reader and analyze the data Z′-LYTE Assay Controls
# (§8) SelectScreen Kinase Profiling Service uses XLfit from IDBS. The dose response curve is curve fit to model number 205 (sigmoidal dose-response model).
# The 2×AURKA (Aurora A)/Ser/Thr 01 mixture is prepared in 50 mM HEPES pH 7.5, 0.01% BRIJ-35, 10 mM MgCl2, 1 mM EGTA. The final 10 μL Kinase Reaction consists of 0.91-8.56 ng AURKA (Aurora A) and 2 μM Ser/Thr 01 in 50 mM HEPES pH 7.5, 0.01% BRIJ-35, 10 mM MgCl2, 1 mM EGTA. After the 1 hour Kinase Reaction incubation, 5 μL of a 1:4096 dilution of Development Reagent A is added.
# CSF1R (FMS) = CSF1R (FMS) (Homo sapiens, UniProt P07333); assay: Z'-LYTE SelectScreen biochemical kinase assay CSF1R (FMS)
# Sequence of CSF1R (FMS) (P07333 20-972): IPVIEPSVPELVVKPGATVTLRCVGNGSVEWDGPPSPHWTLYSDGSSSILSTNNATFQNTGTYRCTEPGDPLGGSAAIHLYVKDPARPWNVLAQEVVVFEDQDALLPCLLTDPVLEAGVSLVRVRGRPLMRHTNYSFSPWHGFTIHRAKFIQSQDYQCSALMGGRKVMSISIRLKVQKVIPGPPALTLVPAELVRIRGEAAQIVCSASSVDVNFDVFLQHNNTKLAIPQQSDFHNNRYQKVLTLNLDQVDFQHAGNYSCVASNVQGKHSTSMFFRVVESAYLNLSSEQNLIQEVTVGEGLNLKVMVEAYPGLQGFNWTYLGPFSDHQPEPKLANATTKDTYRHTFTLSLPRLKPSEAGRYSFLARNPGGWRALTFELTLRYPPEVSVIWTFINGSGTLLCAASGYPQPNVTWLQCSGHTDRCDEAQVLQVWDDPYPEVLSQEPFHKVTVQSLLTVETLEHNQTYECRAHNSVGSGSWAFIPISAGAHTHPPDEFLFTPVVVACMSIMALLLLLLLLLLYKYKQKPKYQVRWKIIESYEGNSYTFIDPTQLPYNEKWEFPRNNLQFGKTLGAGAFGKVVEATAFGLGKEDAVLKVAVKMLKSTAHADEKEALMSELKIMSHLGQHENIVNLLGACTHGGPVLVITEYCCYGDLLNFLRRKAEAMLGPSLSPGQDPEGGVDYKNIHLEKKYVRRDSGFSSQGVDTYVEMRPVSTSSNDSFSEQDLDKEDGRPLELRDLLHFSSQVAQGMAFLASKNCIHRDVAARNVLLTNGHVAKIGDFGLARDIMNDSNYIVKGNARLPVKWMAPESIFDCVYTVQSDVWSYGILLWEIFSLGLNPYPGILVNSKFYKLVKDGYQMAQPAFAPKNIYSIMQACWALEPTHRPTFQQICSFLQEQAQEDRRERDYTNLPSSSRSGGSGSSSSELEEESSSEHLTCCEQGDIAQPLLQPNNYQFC
# Description: as §1, §2, §3, §4, §5, §6, §7, §8
# The 2×CSF1R (FMS)/Tyr 01 mixture is prepared in 50 mM HEPES pH 7.5, 0.01% BRIJ-35, 10 mM MgCl2, 1 mM EGTA. The final 10 μL Kinase Reaction consists of 0.2-40 ng CSF1R (FMS) and 2 μM Tyr 01 in 50 mM HEPES pH 7.5, 0.01% BRIJ-35, 10 mM MgCl2, 1 mM EGTA. After the 1 hour Kinase Reaction incubation, 5 μL of a 1:256 dilution of Development Reagent B is added.
# PDGFRA (PDGFR alpha) = PDGFRA (PDGFR alpha) (Homo sapiens, UniProt P16234); assay: Z'-LYTE SelectScreen biochemical kinase assay PDGFRA (PDGFR alpha)
# Sequence of PDGFRA (PDGFR alpha) (P16234 24-1089): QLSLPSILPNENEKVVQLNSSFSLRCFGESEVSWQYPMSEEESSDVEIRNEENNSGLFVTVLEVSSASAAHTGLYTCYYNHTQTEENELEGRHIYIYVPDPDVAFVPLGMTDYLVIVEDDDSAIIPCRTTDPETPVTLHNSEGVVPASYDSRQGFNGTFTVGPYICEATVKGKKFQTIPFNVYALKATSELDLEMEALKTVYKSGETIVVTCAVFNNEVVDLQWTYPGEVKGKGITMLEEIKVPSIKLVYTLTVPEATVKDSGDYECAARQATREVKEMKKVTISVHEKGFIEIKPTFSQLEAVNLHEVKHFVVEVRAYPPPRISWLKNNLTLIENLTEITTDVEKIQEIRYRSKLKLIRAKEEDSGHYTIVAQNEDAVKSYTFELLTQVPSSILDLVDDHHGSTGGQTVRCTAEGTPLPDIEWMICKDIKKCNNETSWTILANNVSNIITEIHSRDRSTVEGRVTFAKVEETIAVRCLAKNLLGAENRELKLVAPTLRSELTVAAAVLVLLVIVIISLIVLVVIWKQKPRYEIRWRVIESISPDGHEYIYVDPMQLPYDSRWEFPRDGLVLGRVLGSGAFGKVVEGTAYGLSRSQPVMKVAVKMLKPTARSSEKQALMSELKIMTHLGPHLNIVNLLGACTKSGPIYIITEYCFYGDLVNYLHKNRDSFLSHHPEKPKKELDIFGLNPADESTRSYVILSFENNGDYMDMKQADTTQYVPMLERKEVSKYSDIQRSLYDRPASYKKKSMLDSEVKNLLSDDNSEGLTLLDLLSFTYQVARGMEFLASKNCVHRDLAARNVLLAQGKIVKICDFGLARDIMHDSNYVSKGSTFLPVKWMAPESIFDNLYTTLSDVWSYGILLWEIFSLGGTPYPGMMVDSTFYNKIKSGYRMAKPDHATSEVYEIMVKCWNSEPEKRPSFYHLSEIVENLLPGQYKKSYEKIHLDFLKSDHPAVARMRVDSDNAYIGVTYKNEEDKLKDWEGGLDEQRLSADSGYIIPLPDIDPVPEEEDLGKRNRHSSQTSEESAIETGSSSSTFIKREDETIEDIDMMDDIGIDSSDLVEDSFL
# Description: as §1, §2, §3, §4, §5, §6, §7, §8
# The 2×PDGFRA (PDGFR alpha)/Tyr 04 mixture is prepared in 50 mM HEPES pH 7.5, 0.01% BRIJ-35, 10 mM MgCl2, 4 mM MnCl2, 1 mM EGTA, 2 mM DTT. The final 10 μL Kinase Reaction consists of 1.54-22.6 ng PDGFRA (PDGFR alpha) and 2 μM Tyr 04 in 50 mM HEPES pH 7.5, 0.01% BRIJ-35, 10 mM MgCl2, 2 mM MnCl2, 1 mM EGTA, 1 mM DTT. After the 1 hour Kinase Reaction incubation, 5 μL of a 1:64 dilution of Development Reagent B is added.
# [1] = 10 μmolar compound concentration, ATP at Km app, read-out: AURKA (Aurora A) inhibition
# [2] = read-out: % Inhibition mean AURKA (Aurora A)
# [3] = 10 μmolar compound concentration, ATP at Km app, read-out: CSF1R (FMS) inhibition
# [4] = read-out: % Inhibition mean CSF1R (FMS)
# [5] = 10 μmolar compound concentration, ATP at Km app, read-out: PDGFRA (PDGFR alpha) inhibition
# [6] = read-out: % Inhibition mean PDGFRA (PDGFR alpha)
SMILES,inhibition at 10 µM (AURKA (Aurora A); [1]) [%],inhibition at 10 µM (AURKA (Aurora A); [2]) [%],inhibition at 10 µM (CSF1R (FMS); [3]) [%],inhibition at 10 µM (CSF1R (FMS); [4]) [%],inhibition at 10 µM (PDGFRA (PDGFR alpha); [5]) [%],inhibition at 10 µM (PDGFRA (PDGFR alpha); [6]) [%],inhibition at 10 µM (AURKA (Aurora A); read-out: % Inhibition mean) [%],inhibition at 10 µM (CSF1R (FMS); read-out: % Inhibition mean) [%],inhibition at 10 µM (PDGFRA (PDGFR alpha); read-out: % Inhibition mean) [%]
"Cc1cc(F)ccc1-c1cccn2nc(NC3CCc4c(cnn4C(C)C)C3)nc12 (stereo not drawn) [Example 44, [8-(4-fluoro-2-methyl-phenyl)-[1,2,4]triazolo[1,5-a]pyridine-2-yl]-(1-isopropyl-4,5,6,7-tetrahydro-1H-indazol-5-yl)-amine]",< 40,7,40 to 80,43,< 40,5,–,–,–
"CC1(C)NC(=O)c2ccc(Nc3nc4c(-c5cccc(F)c5)cccn4n3)cc21 [Cpd. 302 in WO09155551, reference compound]",> 80,–,> 80,–,> 80,–,98,95,89
"CCn1nnc2c1CCC(Nc1nc3c(-c4ccc(F)cc4C)cccn3n1)C2 (stereo not drawn) [Example 51, (1-Ethyl-4,5,6,7-tetrahydro-1H-benzotriazol-5-yl)-[8-(4-fluoro-2-methyl-phenyl)-[1,2,4]triazolo[1,5-a]pyridine-2-yl]-amine]",< 40,8,< 40,9,< 40,14,–,–,–
"CCn1ncc2c1CCC(Nc1nc3c(-c4cncc(Cl)c4)cccn3n1)C2 (stereo not drawn) [Example 73, [8-(5-Chloro-pyridin-3-yl)-[1,2,4]triazolo[1,5-a]pyridine-2-yl]-(1-ethyl-4,5,6,7-tetrahydro-1H-indazol-5-yl)-amine]",> 80,85,40 to 80,79,< 40,23,–,–,–
"CCn1ncc2c1CC[C@H](Nc1nc3c(-c4ccc(F)c(Cl)c4)cccn3n1)C2 [Example S-61, (S)-[8-(3-Chloro-4-fluoro-phenyl)-[1,2,4]triazolo[1,5-a]pyridine-2-yl]-(1-ethyl-4,5,6,7-tetrahydro-1H-indazol-5-yl)-amine]",< 40,-21,< 40,18,< 40,13,–,–,–
"CCn1nc(Cl)c2c1CCC(Nc1nc3c(-c4ccc(F)cc4C)cccn3n1)C2 (stereo not drawn) [Example 48, (3-Chloro-1-ethyl-4,5,6,7-tetrahydro-1H-indazol-5-yl)-[8-(4-fluoro-2-methyl-phenyl)-[1,2,4]triazolo[1,5-a]pyridine-2-yl]-amine]",< 40,-14,< 40,15,< 40,19,–,–,–
"CCn1ncc2c1CCC(Nc1nc3c(-c4cccnc4OC)cccn3n1)C2 (stereo not drawn) [Example 69, (1-Ethyl-4,5,6,7-tetrahydro-1H-indazol-5-yl)-[8-(2-methoxy-pyridin-3-yl)-[1,2,4]triazolo[1,5-a]pyridine-2-yl]-amine]",< 40,25,< 40,8,< 40,17,–,–,–
"CC1(C)C(=O)Nc2ccc(Nc3nc4c(-c5cccc(F)c5)cccn4n3)cc21 [Cpd. 263 in WO09155551, reference compound]",> 80,–,> 80,–,> 80,–,99,93,86
"Cc1cc(F)ccc1-c1cccn2nc(NC3CCc4c(cnn4C)C3)nc12 (stereo not drawn) [Example 10, [8-(4-fluoro-2-methyl-phenyl)-[1,2,4]triazolo[1,5-a]pyridine-2-yl]-(1-methyl-4,5,6,7-tetrahydro-1H-indazol-5-yl)-amine]",< 40,4,40 to 80,42,< 40,8,–,–,–
"CCCCn1ncc2c1CCC(Nc1nc3c(-c4ccc(F)cc4C)cccn3n1)C2 (stereo not drawn) [Example 46, [8-(4-fluoro-2-methyl-phenyl)-[1,2,4]triazolo[1,5-a]pyridine-2-yl]-(1-butyl-4,5,6,7-tetrahydro-1H-indazol-5-yl)-amine]",< 40,14,< 40,24,< 40,25,–,–,–
"CCn1ncc2c1CCC(Nc1nc3c(-c4cnccc4OC)cccn3n1)C2 (stereo not drawn) [Example 68, (1-Ethyl-4,5,6,7-tetrahydro-1H-indazol-5-yl)-[8-(4-methoxy-pyridin-3-yl)-[1,2,4]triazolo[1,5-a]pyridine-2-yl]-amine]",< 40,39,40 to 80,66,< 40,23,–,–,–
"CCc1nn(C)c2c1CCC(Nc1nc3c(-c4ccc(F)cc4C)cccn3n1)C2 (stereo not drawn) [Example 54, (3-Ethyl-1-methyl-4,5,6,7-tetrahydro-1H-indazol-6-yl)-[8-(4-fluoro-2-methyl-phenyl)-[1,2,4]triazolo[1,5-a]pyridine-2-yl]-amine]",< 40,18,< 40,27,< 40,30,–,–,–
"CCCCCn1ncc2c1CCC(Nc1nc3c(-c4ccc(F)cc4C)cccn3n1)C2 (stereo not drawn) [Example 47, [8-(4-fluoro-2-methyl-phenyl)-[1,2,4]triazolo[1,5-a]pyridine-2-yl]-(1-pentyl-4,5,6,7-tetrahydro-1H-indazol-5-yl)-amine]",< 40,10,< 40,15,< 40,10,–,–,–
